Experimental data published in US20070099863A1, “Compounds for the treatment of demyelinating and autoimmune diseases” (priority 2003, published 2007).
Counter-ions that a name gives are not always drawn.

What was measured:
[1] = tested on: P2X receptors in oligodendrocytes; experiment: Whole-cell patch-clamp recordings in cultured oligodendrocytes; format: cell-based, rat; settings: for induction of input current by agonist: agonist 100 μM; for EC50: cultured oligodendrocytes, whole-cell patch-clamp, read-out: EC50 of amplitude of currents generated by agonist
Method: (§1) The cell cultures were carried out from the optic nerve of the perinatal rat (P12) following established protocols, which were adapted and introduced into the laboratory according to a recent description (Matute et al, 1997, Proc. Natl. Acad. Sci. USA 94, 8830-8835).
The electrophysiological recordings were carried out in 2 to 5 day cultures, and according to the guidelines indicated in previous works (Patneau et al 1994, Neuron 12: 357-371). The cells were recorded in a chamber which allowed the composition of the extracellular medium to vary by means of a constant flow (0.5-1 mL/min). The recording electrodes were glass capillaries which contained specific solutions compatible with the cytoplasm ion concentrations. The study of the responses mediated by the purinergic receptors was carried out using the “whole-cell patch-clamp” technique, measuring the currents generated by the external application of selective agonists and antagonists of the aforementioned receptors.

oligodendrocytes = experiment: Oligodendroglial death in culture; format: cell-based, rat; settings: for toxicity of purinergic agonists for oligodendrocytes: culture
Method: Death is calcium dependent, since its elimination from the culture media leads to it not being caused. […] The cell cultures were carried out from the optic nerve of the perinatal rat (P12) following established protocols, which were adapted and introduced into the laboratory according to a recent description (Matute et al, 1997, Proc. Natl. Acad. Sci. USA 94, 8830-8835).

[2] = tested on: oligodendrocytes of isolated optic nerve; experiment: Isolated optic nerve perfusion, oligodendrocyte damage in situ; design: species or system rat
Method: Next, they were incubated with purinergic agonists and antagonists for different times. Later, the nerves were perfused for 1 to 24 hours with normal aCSF saturated with oxygen. After this time passed the damage was evaluated histologically as we have described in vivo (Matute, 1998, Proc. Natl. Acad. Sci. USA 95: 10229-10234), and the biochemical changes which are underlying to this damage were analysed.
To determine if ATP is toxic to the oligodendrocytes in a preparation of nerve tissue without dissociating, entire optic nerves isolated from adult rats were perfused with artificial cerebrospinal fluid with ATP (100 μM) for 3 h. […] The damaged cells are located in the longitudinal axis of the nerve and make up part of interfascicular oligodendrocyte rows.

[3] = tested on: P2X receptors in oligodendrocytes; experiment: Cytosolic calcium levels (Fura-2) in oligodendrocyte cultures; format: cell-based, rat; settings: for promotion of the increase of [Ca2+]i generated by ATP: propofol 60 μM
Method: as §1
The concentration of cytosol calcium was determined by the method of Grynkiewikcz et al (1985; J. Biol. Chem. 260, 3440-3450). The oligodendrocytes were loaded with […] of Fura-2/AM, and they were then washed and studied in a Zeiss inverted microscope equipped with a monochromator, 40× immersion objective, an Orca high resolution digital camera, and AquaCosmos software (Hamamatsu Photonics). The changes in cytosol calcium levels in response to agonists and antagonists, in the presence and absence of extracellular calcium, were studied. The calibration was performed at the end of the studies by means of the successive application of ionomycin and EGTA, and the calcium concentration was estimated using the measurement of the 340/380 nm ratio.

P2X1 = target: T1, P2X1 (Homo sapiens, UniProt P51575); settings: P2X1 subtype; read-out: IC50 in relation to P2X1; cited from earlier work
T1 sequence (P51575 1-399): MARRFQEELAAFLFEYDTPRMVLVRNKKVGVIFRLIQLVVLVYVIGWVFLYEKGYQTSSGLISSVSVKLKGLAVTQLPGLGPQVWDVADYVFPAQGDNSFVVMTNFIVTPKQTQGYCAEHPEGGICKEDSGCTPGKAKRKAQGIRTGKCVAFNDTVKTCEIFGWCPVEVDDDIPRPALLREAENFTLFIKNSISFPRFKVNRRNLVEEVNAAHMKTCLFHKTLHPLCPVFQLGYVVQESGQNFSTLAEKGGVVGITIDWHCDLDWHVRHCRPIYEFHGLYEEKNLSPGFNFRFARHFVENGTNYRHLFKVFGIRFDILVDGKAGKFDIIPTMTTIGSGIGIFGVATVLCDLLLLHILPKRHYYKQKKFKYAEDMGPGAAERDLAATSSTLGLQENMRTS

P2X3 = target: T2, P2X3 (Homo sapiens, UniProt P56373); settings: P2X3 subtype; read-out: IC50 in relation to P2X3; cited from earlier work
T2 sequence (P56373 1-397): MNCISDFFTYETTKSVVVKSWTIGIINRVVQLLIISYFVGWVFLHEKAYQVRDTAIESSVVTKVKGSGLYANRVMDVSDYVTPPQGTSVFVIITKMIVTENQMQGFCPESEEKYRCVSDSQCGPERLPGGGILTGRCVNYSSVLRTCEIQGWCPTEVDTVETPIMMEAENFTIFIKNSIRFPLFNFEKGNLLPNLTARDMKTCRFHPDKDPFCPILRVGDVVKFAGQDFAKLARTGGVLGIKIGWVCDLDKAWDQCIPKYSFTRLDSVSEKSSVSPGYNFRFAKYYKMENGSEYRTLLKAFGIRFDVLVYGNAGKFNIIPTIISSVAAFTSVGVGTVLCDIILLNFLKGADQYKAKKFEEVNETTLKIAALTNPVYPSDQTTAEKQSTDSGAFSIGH

P2X4 = target: T3, P2X4 (Homo sapiens, UniProt Q99571); settings: P2X4 subtype; read-out: IC50 in relation to P2X4; cited from earlier work
T3 sequence (Q99571 1-388): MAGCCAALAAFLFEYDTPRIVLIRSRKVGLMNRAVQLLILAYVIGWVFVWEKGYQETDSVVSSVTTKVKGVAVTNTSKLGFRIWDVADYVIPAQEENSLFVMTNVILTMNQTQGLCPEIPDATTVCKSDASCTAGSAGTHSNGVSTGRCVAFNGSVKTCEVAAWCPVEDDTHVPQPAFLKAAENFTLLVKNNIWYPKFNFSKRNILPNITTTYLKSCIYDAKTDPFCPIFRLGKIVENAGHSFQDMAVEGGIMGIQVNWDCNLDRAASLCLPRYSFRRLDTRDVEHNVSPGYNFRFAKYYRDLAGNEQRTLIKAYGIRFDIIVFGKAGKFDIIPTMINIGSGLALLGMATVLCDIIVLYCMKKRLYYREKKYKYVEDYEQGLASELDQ

optic nerve = experiment: Infusion of agonists over the optic nerve in vivo (osmotic pumps); design: species or system rabbit; settings: infused 3 days by osmotic pumps, examined 7 days after start
Method: The experiments on the optic nerve were carried out in rabbits (New Zealand White) which, due to their size, enable better manipulation in experimental surgery. The procedure used was that described previously (Matute, 1998, Proc. Natl. Acad. Sci. 95, 10229-10234). The purinergic agonists were applied using osmotic micropumps which released small quantities of solute for a determined time. Later, the effect of this application on the nerve was evaluated by means of a panel of oligodendrocyte markers and their progenitors, myelin, axonal integrity, astrogliosis y microgliosis.
Next, the ATP-γ-S and BzATP agonists were infused over the optic nerve using osmotic pumps which released very small quantities of solute for 3 days. […] Also, this zone had intense gliosis, lack of myelin and axonal damage (FIG. 6).

EAE in Lewis rats = experiment: Acute EAE induced with basic myelin protein; format: in vivo, rat; settings: 7 to 14 days post-injection
P2X7 receptors = experiment: P2X7 receptor levels in lumbar-sacral spinal cord of EAE animals (Western blot); format: in vivo, rat; settings: EAE animals treated with o-ATP; untreated EAE reduced by half
EAE in DA rats = experiment: Chronic-recurrent-remittent EAE model; format: in vivo, rat; settings: o-ATP 2.5 mg/kg every 12 h, from maximum intensity of symptoms
Method: Later, the efficacy of o-ATP in improving the symptoms of EAE was evaluated in a chronic-recurrent-remittent model. For this, DA rats were immunised with syngeneic spinal cord, the appearance of severe neurological deficits being observed 7-9 days post-injection, and which reached their first peak around 11 days.

For `Nc1ncnc2c1ncn2[C@@H]1O[C@H](COP(=O)(O)CP(=O)(O)OP(=O)(O)O)[C@@H](O)[C@H]1O` [α,β-Me-ATP, α,β-methylene-ATP], the “induction of input current by agonist” value [1] was “did not generate currents” and the “toxicity of purinergic agonists for oligodendrocytes” value (“toxicity of purinergic agonists” below) (oligodendrocytes) was “toxic”.

In the case of `Nc1ncnc2c1ncn2[C@@H]1O[C@H](COP(=O)(O)OP(=O)(O)OP(=O)(O)O)[C@@H](O)[C@H]1O` [ATP], the “oligodendrocytes showing non-desensitising input current” value ([1]; ATP 1 mM, n=47) is reported as 77.3%±7.9, the EC50 [1] is reported as 8.77 mM and the “increase in number of cells with nuclear condensation vs control nerves” value ([2]; ATP 100 μM for 3 h, isolated adult rat optic nerve) is reported as greater than 3 times. The “cytosol [Ca2+]i after agonist” value ([3]; ATP 10 μM, basal 250±65 nM) was 1200 ± 468 nM and the death of oligodendrocytes (oligodendrocytes; ATP 0.01-1 mM, all concentrations tested) was 15-27%.

For `CC(C)c1cccc(C(C)C)c1O` [propofol], the “effect on ATP currents” value ([1]; propofol 60 μM) was “does not alter these currents”, the “promotion of the increase of [Ca2+]i generated by ATP” value ([3]; 0.1 mM ATP) was 60%±22 and the “promotion of the increase of [Ca2+]i generated by ATP” value ([3]; 1 mM ATP) was 77%±34.

In the case of `O=c1[nH]cnc2c1ncn2C1OC(COP(=O)(O)OP(=O)(O)OP(=O)(O)OP(=O)(O)OP(=O)(O)OCC2OC(n3cnc4c(=O)[nH]cnc43)C(O)C2O)C(O)C1O` (centres unmarked) [Ip5I, pentapotassium salt of P^1,P^5-Diinosine-5-pentaphosphate], the IC50 (P2X1) is listed as 3 nM and the IC50 (P2X3) is listed as 3 µM.

In the case of `[Cu+2]` [Cu^2+], the “effect on ATP currents” value ([1]; Cu2+ 1 mM) is reported as “reduces ATP currents”.

For `O=C(Nc1ccc(C(=O)Nc2ccc(C(=O)Nc3ccc(S(=O)(=O)O)c4cc(S(=O)(=O)O)cc(S(=O)(=O)O)c34)cc2)cc1)Nc1ccc(C(=O)Nc2ccc(C(=O)Nc3ccc(S(=O)(=O)O)c4cc(S(=O)(=O)O)cc(S(=O)(=O)O)c34)cc2)cc1` [NF279], the IC50 (P2X4) is given as greater than 30 µM and the IC50 (P2X1) is given as 20 nM.

With 2′,3′-O-(4-benzoyl-4-benzoyl) [BzATP] the “induction of input current by agonist” value [1] was “induced similar responses”, the EC50 [1] was 0.52 mM and the “histological examination of optic nerve after agonist infusion” value (optic nerve) was “tissue damage”. The “entrance of Ca2+ into oligodendrocytes” value ([3]; Bz-ATP 0.01-1 mM) was “activates the entrance of Ca^2+ into oligodendrocytes in a dose dependent way” and the “toxicity of purinergic agonists” value (oligodendrocytes) was “toxicity similar to ATP”.

With `Cc1nc(N=Nc2ccc(S(=O)(=O)O)cc2S(=O)(=O)O)c(COP(=O)(O)O)c(C=O)c1O` [PPADS, tetrasodium salt of pyridoxalphosphate-6-azophenyl-2′,4′-disulfonic acid] the “effect on currents induced by ATP” value ([1]; PPADS 100 μM) was “completely blocked”, the “effect on symptoms and course of acute EAE” value (EAE in Lewis rats; PPADS 30 mg/kg two times per day) was “did not improve the symptoms or the course of the disease” and the “effect on ATP-induced oligodendrocyte death in isolated optic nerve” value ([2]; PPADS 10 μM with ATP) was “prevents the death of the oligodendrocytes”. For the same compound, the “effect on Ca2+ entrance induced by Bz-ATP” value ([3]; PPADS) was “blocked”, the “effect on [Ca2+]i response to ATP” value ([3]; PPADS 50 μM, ATP 10 μM) was “repressed” and the “effect on ATP-induced oligodendrocyte death” value (oligodendrocytes; PPADS 50 μM) was “inhibited”.

In the case of `O=C(Nc1cccc(C(=O)Nc2ccc(S(=O)(=O)O)c3cc(S(=O)(=O)O)cc(S(=O)(=O)O)c23)c1)Nc1cccc(C(=O)Nc2ccc(S(=O)(=O)O)c3cc(S(=O)(=O)O)cc(S(=O)(=O)O)c23)c1` [NF023, hexasodium salt of 8,8′-[carbonylbis[imino-3,1-phenylenecarbonylimino]bis-1,3,5-naphthalenetrisulfonic acid]], the IC50 (P2X3) is given as 29 µM.

For `Nc1ncnc2c1ncn2[C@@H](C=O)O[C@@H](C=O)COP(=O)(O)OP(=O)(O)OP(=O)(O)O` [o-ATP, sodium salt of Adenosine 5-triphosphate, oxidised with periodate], the “effect on ATP currents” value ([1]; o-ATP, concentration not given) was “partially blocks”, the “effect on symptoms of acute EAE” value (EAE in Lewis rats; o-ATP 1 and 5 mg/kg every 12 h) was “reduced or prevented the appearance of symptoms” and the “levels of P2X7 receptors in lumbar-sacral spinal cord” value (P2X7 receptors) was “returned to those of the controls”. For the same compound, the “effect on symptoms of chronic-recurrent-remittent EAE” value (EAE in DA rats) was “reduced the symptoms and also eliminated those common to the chronic phase”, the “reduction of the increase in [Ca2+]i induced by Bz-ATP” value ([3]; o-ATP 1 mM) was 63±8 and the “effect on oligodendroglial death due to ATP” value (oligodendrocytes; o-ATP (FIG. 4)) was “can be prevented”.

In the case of `Nc1ncnc2c1ncn2[C@@H]1O[C@H](COP(=O)(O)OP(=O)(O)OP(O)(O)=S)[C@@H](O)[C@H]1O` [ATP-γ-S], the “histological examination of optic nerve after agonist infusion” value (optic nerve) is reported as “tissue damage” and the “toxicity of purinergic agonists” value (oligodendrocytes) is reported as “toxic”.
